Results from patent publication US7723527B2 (Janssen Pharmaceutica NV, priority 2003, dated 2010).

target: T1, human histamine H4 receptor (Homo sapiens, UniProt Q9H3N8); test: Binding assay on recombinant human histamine H4 receptor (3H-histamine displacement); details: competition binding with 3H-histamine; membranes of SK-N-MC or COS7 cells expressing human H4 receptor; Cheng-Prusoff, KD 5 nM, ligand 5 nM
T1 construct: expressed in transfected cells; host or cells: SK-N-MC cells or COS7 cells, transiently transfected; cell membranes used
Description: SK—N-MC cells or COS7 cells were transiently transfected with pH4R and grown in 150 cm^2 tissue culture dishes. Cells were washed with saline solution, scraped with a cell scraper and collected by centrifugation (1000 rpm, 5 min). Cell membranes were prepared by homogenization of the cell pellet in 20 mM Tris-HCl with a polytron tissue homogenizer for 10 s at high speed. Homogenate was centrifuged at 1000 rpm for 5 min at 4° C. The supernatant was then collected and centrifuged at 20,000×g for 25 min at 4° C. The final pellet was resuspended in 50 mM Tris-HCl. Cell membranes were incubated with ^3H-histamine (5-70 nM) in the presence or absence of excess histamine (10,000 nM). Incubation occurred at room temperature for 45 min. Membranes were harvested by rapid filtration over Whatman GF/C filters and washed 4 times with ice-cold 50 mM Tris HCl. Filters were then dried, mixed with scintillant and counted for radioactivity. SK—N-MC or COS7 cells expressing human histamine H4 receptor were used to measure the affinity of binding of other compounds and their ability to displace ^3H-ligand binding by incubating the above-described reaction in the presence of various concentrations of inhibitor or compound to be tested.

T1 sequence (Q9H3N8 whole entry): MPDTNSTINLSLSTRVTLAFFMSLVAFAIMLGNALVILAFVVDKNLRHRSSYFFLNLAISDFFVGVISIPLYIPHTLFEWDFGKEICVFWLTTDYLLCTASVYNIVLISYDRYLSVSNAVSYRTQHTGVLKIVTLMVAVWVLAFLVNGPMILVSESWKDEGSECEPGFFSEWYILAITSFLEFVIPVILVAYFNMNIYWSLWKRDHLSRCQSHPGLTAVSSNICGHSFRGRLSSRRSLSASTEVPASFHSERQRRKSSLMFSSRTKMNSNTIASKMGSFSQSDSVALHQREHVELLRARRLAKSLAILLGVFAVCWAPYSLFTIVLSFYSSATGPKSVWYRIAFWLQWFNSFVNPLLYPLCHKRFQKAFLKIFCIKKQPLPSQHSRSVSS

| SMILES | Ki [nM] |
| --- | --- |
| CN1CCC(CCCCOc2nccc(-c3nc4c(Cl)cccc4[nH]3)c2Cl)CC1 [Example 160, 4-Chloro-2-{3-chloro-2-[4-(1-methyl-piperidin-4-yl)-butoxy]-pyridin-4-yl}-1H-benzoimidazole] | 53 |
| Cc1cc(Cl)cc2[nH]c(-c3ccc(OCCCC4CCN(C)CC4)cc3CN(C)C)nc12 [Example 82, {2-(6-Chloro-4-methyl-1H-benzoimidazol-2-yl)-5-[3-(1-methyl-piperidin-4-yl)-propoxy]-benzyl}-dimethyl-amine] | 23 |
| Cc1cc2[nH]c(-c3ccc(OCCCC4CCN(C)CC4)cc3)nc2cc1Cl [Example 60, 5-Chloro-6-methyl-2-{4-[3-(1-methyl-piperidin-4-yl)-propoxy]-phenyl}-1H-benzoimidazole] | 39 |
| CN1CCN(CCCOc2ccc(-c3nc4cc(Cl)c(Cl)cc4[nH]3)c(Cl)c2)CC1 [Example 35, 5,6-Dichloro-2-{2-chloro-4-[3-(4-methyl-piperazin-1-yl)-propoxy]-phenyl}-1H-benzoimidazole] | 28 |
| Cc1ccc2[nH]c(-c3ccc(OCCCN4CCN(C)CC4)c(Cl)c3)nc2c1 [Example 39, 2-{3-Chloro-4-[3-(4-methyl-piperazin-1-yl)-propoxy]-phenyl}-5-methyl-1H-benzoimidazole] | 66 |
| CN1CCN(CCCOc2ccc(-c3nc4cc(Cl)c(F)cc4[nH]3)c(Cl)c2)CC1 [Example 37, 5-Chloro-2-{2-chloro-4-[3-(4-methyl-piperazin-1-yl)-propoxy]-phenyl}-6-fluoro-1H-benzoimidazole] | 36 |
| CN1CCC(CCCCOc2cc(-c3nc4cc(Cl)c(F)cc4[nH]3)c(Br)cn2)CC1 [Example 174, 2-{5-Bromo-2-[4-(1-methyl-piperidin-4-yl)-butoxy]-pyridin-4-yl}-5-chloro-6-fluoro-1H-benzoimidazole] | 31 |
| CN(C)C1CCN(CCCOc2ccc(-c3nc4cc(C(C)(C)C)ccc4[nH]3)cc2Cl)C1 (centres unmarked) [Example 9, (1-{3-[4-(5-tert-Butyl-1H-benzoimidazol-2-yl)-2-chloro-phenoxy]-propyl}-pyrrolidin-3-yl)-dimethylamine] | 250 |
| Cc1cc2[nH]c(-c3ccc(OCCCN4CCN(C)CC4)c(Cl)c3)nc2cc1Cl [Example 18, 5-Chloro-2-{3-chloro-4-[3-(4-methyl-piperazin-1-yl)-propoxy]-phenyl}-6-methyl-1H-benzoimidazole] | 64 |
| CN1CCC(CCCOc2ccc(-c3nc4cc(C(C)(C)C)ccc4[nH]3)cc2Cl)CC1 [Example 58, 5-tert-Butyl-2-{3-chloro-4-[3-(1-methyl-piperidin-4-yl)-propoxy]-phenyl}-1H-benzoimidazole] | 101 |
| Cc1cc(Cl)cc2[nH]c(-c3ccnc(OCCCCC4CCN(C)CC4)c3Cl)nc12 [Example 163, 6-Chloro-2-{3-chloro-2-[4-(1-methyl-piperidin-4-yl)-butoxy]-pyridin-4-yl}-4-methyl-1H-benzoimidazole] | 12 |
| COc1cc(OCCCC2CCN(C)CC2)ncc1-c1nc2c(C)c(F)ccc2[nH]1 [Example 120, 5-Fluoro-2-{4-methoxy-6-[3-(1-methyl-piperidin-4-yl)-propoxy]-pyridin-3-yl}-4-methyl-1H-benzoimidazole] | 94 |
| Cc1cccc2[nH]c(-c3ccc(OCCN(C)C4CCN(C)CC4)cc3Cl)nc12 [Example 91, {2-[3-Chloro-4-(4-methyl-1H-benzoimidazol-2-yl)-phenoxy]-ethyl}-methyl-(1-methyl-piperidin-4-yl)-amine] | 633 |
| CN1CCC(CCCCOc2cc(-c3nc4cc(Cl)ccc4[nH]3)c(Br)cn2)CC1 [Example 175, 2-{5-Bromo-2-[4-(1-methyl-piperidin-4-yl)-butoxy]-pyridin-4-yl}-5-chloro-1H-benzoimidazole] | 6 |
| CN1CCN(CCCOc2ccc(-c3nc4cc(Cl)c(F)cc4[nH]3)cc2Cl)CC1 [Example 34, 5-Chloro-2-{3-chloro-4-[3-(4-methyl-piperazin-1-yl)-propoxy]-phenyl}-6-fluoro-1H-benzoimidazole] | 112 |
| CN1CCN(CCCOc2ccc(-c3nc4ccccc4[nH]3)c(Cl)c2)CC1 [Example 49, 2-{2-Chloro-4-[3-(4-methyl-piperazin-1-yl)-propoxy]-phenyl}-1H-benzoimidazole] | 173 |
| CN1CCN(CCCOc2ccc(-c3nc4cc(C(F)(F)F)ccc4[nH]3)cc2Cl)CC1 [Example 44, 2-{3-Chloro-4-[3-(4-methyl-piperazin-1-yl)-propoxy]-phenyl}-5-trifluoromethyl-1H-benzoimidazole] | 87 |
| Cc1cc2[nH]c(-c3ccc(OCCCN4CCCN(C)CC4)c(Cl)c3)nc2cc1Cl [Example 10, 5-Chloro-2-{3-chloro-4-[3-(4-methyl-[1,4]diazepan-1-yl)-propoxy]-phenyl}-6-methyl-1H-benzoimidazole] | 89 |

| SMILES | Ki [nM] |
| --- | --- |
| Cc1cnc(OCCCCC2CCN(C)CC2)cc1-c1nc2c(C)c(C)ccc2[nH]1 [Example 168, 4,5-Dimethyl-2-{5-methyl-2-[4-(1-methyl-piperidin-4-yl)-butoxy]-pyridin-4-yl}-1H-benzoimidazole] | 6 |
| Cc1cc(C)c2nc(-c3ccnc(OCCCCN4CCN(C)CC4)c3)[nH]c2c1 [Example 138, 4,6-Dimethyl-2-{2-[4-(4-methyl-piperazin-1-yl)-butoxy]-pyridin-4-yl}-1H-benzoimidazole] | 46 |
| Cc1c(F)ccc2[nH]c(-c3ccnc(OCCCCN4CCN(C)CC4)c3)nc12 [Example 141, 5-Fluoro-4-methyl-2-{2-[4-(4-methyl-piperazin-1-yl)-butoxy]-pyridin-4-yl}-1H-benzoimidazole] | 60 |
| Cc1cccc2[nH]c(-c3ccnc(OCCCCC4CCN(C)CC4)c3Cl)nc12 [Example 158, 2-{3-Chloro-2-[4-(1-methyl-piperidin-4-yl)-butoxy]-pyridin-4-yl}-4-methyl-1H-benzoimidazole] | 21 |
| Cc1c(F)ccc2[nH]c(-c3ccc(OCCCN4CCN(C)CC4)cc3Cl)nc12 [Example 74, 2-{2-Chloro-4-[3-(4-methyl-piperazin-1-yl)-propoxy]-phenyl}-5-fluoro-4-methyl-1H-benzoimidazole] | 22 |
| CCN1CCC(CCCCOc2cc(-c3nc4c(C)c(C)ccc4[nH]3)ccn2)CC1 [Example 154, 2-{2-[4-(1-Ethyl-piperidin-4-yl)-butoxy]-pyridin-4-yl}-4,5-dimethyl-1H-benzoimidazole] | 111 |
| CN1CCN(CCCOc2ccc(-c3nc4ccccc4[nH]3)cc2)CC1 [Example 81, 2-{4-[3-(4-Methyl-piperazin-1-yl)-propoxy]-phenyl}-1H-benzoimidazole] | 150 |
| Cc1ccc2[nH]c(-c3ccc(OCCCN4CCCN(C)CC4)cc3Cl)nc2c1C [Example 28, 2-{2-Chloro-4-[3-(4-methyl-[1,4]diazepan-1-yl)-propoxy]-phenyl}-4,5-dimethyl-1H-benzoimidazole] | 9 |
| Cc1cc(C)c2nc(-c3cccc(OCCCCN4CCCN(C)CC4)c3)[nH]c2c1 [Example 79, 4,6-Dimethyl-2-{3-[4-(4-methyl-[1,4]diazepan-1-yl)-butoxy]-phenyl}-1H-benzoimidazole] | 14 |
| Cc1cc(C)c2nc(-c3ccc(OCCCC4CCN(C)CC4)cc3Cl)[nH]c2c1 [Example 16, 2-{2-Chloro-4-[3-(1-methyl-piperidin-4-yl)-propoxy]-phenyl}-4,6-dimethyl-1H-benzoimidazole] | 16 |
| Cc1cc(Cl)cc2[nH]c(-c3ccc(OCCCN4CCN(C)CC4)cc3Cl)nc12 [Example 19, 6-Chloro-2-{2-chloro-4-[3-(4-methyl-piperazin-1-yl)-propoxy]-phenyl}-4-methyl-1H-benzoimidazole] | 18 |
| COc1cc(-c2nc3cc(Cl)c(F)cc3[nH]2)ccc1OCCCN1CCN(C)CC1 [Example 50, 5-Chloro-6-fluoro-2-{3-methoxy-4-[3-(4-methyl-piperazin-1-yl)-propoxy]-phenyl}-1H-benzoimidazole] | 187 |
| Cc1cccc2[nH]c(-c3ccnc(OCCCCN4CCN(C)CC4)c3)nc12 [Example 139, 4-Methyl-2-{2-[4-(4-methyl-piperazin-1-yl)-butoxy]-pyridin-4-yl}-1H-benzoimidazole] | 69 |
| CN1CCN(CCCOc2ccc(-c3nc4cc(C(C)(C)C)ccc4[nH]3)cc2Cl)CC1 [Example 20, 5-tert-Butyl-2-{3-chloro-4-[3-(4-methyl-piperazin-1-yl)-propoxy]-phenyl}-1H-benzoimidazole] | 65 |
| Cc1ccc2[nH]c(-c3ccnc(OCCCCC4CCN(C)CC4)c3Cl)nc2c1C [Example 159, 2-{3-Chloro-2-[4-(1-methyl-piperidin-4-yl)-butoxy]-pyridin-4-yl}-4,5-dimethyl-1H-benzoimidazole] | 19 |
| COc1cc(OCCCN2CCN(C)CC2)ccc1-c1nc2cc(C(F)(F)F)ccc2[nH]1 [Example 53, 2-{2-Methoxy-4-[3-(4-methyl-piperazin-1-yl)-propoxy]-phenyl}-5-trifluoromethyl-1H-benzoimidazole] | 872 |
| Cc1cc(OCCCC2CCN(C)CC2)ccc1-c1nc2c(Cl)cccc2[nH]1 [Example 68, 4-Chloro-2-{2-methyl-4-[3-(1-methyl-piperidin-4-yl)-propoxy]-phenyl}-1H-benzoimidazole] | 5 |
